In PMC10541198, “Specific quinone reductase 2 inhibitors reduce metabolic burden and reverse Alzheimer’s disease phenotype in mice” (The Journal of Clinical Investigation, 2023):
Values joined by “and” are separate entries in the source; they are usually repeats but may differ in a detail not shown here. Equal values may be shown once.

What was measured:
Assay type in all cases: cell-based
HEK293 cells = test: XTT cell viability assay; conditions: in % (unit assumed)
Experimental: (§1) To establish direct target engagement and cell membrane permeability, a cellular thermal shift assay (CETSA) was carried out, using leading QR2is YB’s-537, 800, and 808. Following a 1 hour preincubation with 5 μM of the QR2is or vehicle, thermal aggregation curves (Taggs) of QR2 expressed in HEK293T were measured in increasing temperatures. All QR2is increased QR2 thermal stability compared with vehicle (Supplemental Figure 2A). Based on the Tagg curves we selected 73°C for isothermal dose-response fingerprint (IDTRF) experiments (Supplemental Figure 2B). The ITDRF allowed the relative quantification of the binding of each of the QR2is to QR2, measured as the EC50 (Figure 3A). […] We evaluated the safety of the QR2is using cell toxicity and viability assays. […] Cell viability was assessed by XTT assay in HEK239T cells, using a dose response, with 3- or 24-hour incubations of the leading QR2is. No sign of toxicity was seen (Figure 3C). Next, we wanted to assess if, similar to QR2 KO, QR2is can reduce cellular ROS in HCT116 cells and see whether any observable effect is occluded in QR2Δ cells. […] We then assessed WT HCT116 cells by immunoblot (Supplemental Figure 2, C and D), after being treated with YB-800 (2 μM) for 4 consecutive days.
(§2) H2DCFDA ROS assay was carried out according to established protocols, with some adjustment (Supplemental Methods) ([6]). Cell toxicity was measured via ATP depletion (CellTiter Glo, Promega) in THLE-2 cells (ATCC, CRL-2706), following 72 hours of exposure to the test compounds, and cell viability was assessed using XTT assay (Biological Industries) according to manufacturers protocols. CETSA was performed as previously described ([53]) with some modifications, using QR2 (Santa Cruz, sc-271665) and SOD1 (Santa Cruz, sc-17767) antibodies. SDS-PAGE and immunoblot imaging were carried out as previously described ([55]), using Tubulin (Sigma-Aldrich, SAB4500087), QR2 (Santa Cruz, sc-271665), NDUFA9 (AbCam, ab14713) and CD73 (Cell Signaling Technology, D7F9A) antibodies. […]
(§3) HEK293FT cells were cultured with penicillin- streptomycin antibiotics in Invitrogen DMEM (Thermo
(§4) Fisher Scientific) with 10% fetal bovine serum a nd L -glutamine, and grown to 80-90% confluence in 100
mm plates, while being passaged every 2–3 d. For the XTT assay (Biological Industries), cells were then
collected, centrifuged, and resuspended in fresh Minimum Essential Medium, and seeded at 50,000
cells/well in 96-well, poly- L-lysine-coated Nunc black, clear flat-bottomed plates (Thermo Fisher
Scientific). The next day, the cells were treated with increasing doses of QR2 inhibitors or vehicle f or 3 h,
and the XTT assay was then carried out as per the manufacturer’s instructions.
(§5) Cellular The rm a l Shift Assay (CETSA) […]
(§6) 17767). Analysis of the results wer e done in accordance to Jafari et a l .( 63) us i ng GraphPad Pr i sm software.

QR2 expressed in HEK293T = biological target: T1, QR2 expressed in HEK293T (Homo sapiens, UniProt P16083); test: Cellular thermal shift assay (CETSA; Tagg curves and ITDRF); conditions: 73°C; for QR2 stabilization signal, ITDRF (replicates): log[Inhibitor]
T1 construct: endogenous in cells; host or cells: HEK293T
T1 sequence (P16083 1-231): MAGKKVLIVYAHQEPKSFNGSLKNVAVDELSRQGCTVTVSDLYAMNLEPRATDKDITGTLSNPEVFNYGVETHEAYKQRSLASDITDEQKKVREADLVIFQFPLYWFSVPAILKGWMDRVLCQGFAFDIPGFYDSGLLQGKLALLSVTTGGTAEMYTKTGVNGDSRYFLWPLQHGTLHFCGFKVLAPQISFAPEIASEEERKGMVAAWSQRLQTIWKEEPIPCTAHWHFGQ
Experimental: as §1, §2, §3, §4
mm plates, while being passaged every 2–3 d. […]
Cellular The rm a l Shift Assay (CETSA)
The CETSA assay was performed as described(54) with some modifications. Bri efl y, HEK293T cel ls wer e
trypsinized (Biological Indust ri es), washed in PBS (Sigma-Aldrich) and then suspended in PBS containing
protease inhibitor cocktail (Roche). The suspended cells were then divided into two Eppendorf tubes and
were treated with either compound or DMSO (Sigma-Aldrich) for 1h at 37 °C with shaking. Following
treatment, each sample was divided into PCR tubes (100µL/tube) and subjected to a temperature gradient
(ranging fr om 63 to 80 °C) for 3 minutes. Cell lysates we r e obtained by 3- cycles of freeze- t ha w using li qui d
nitrogen and a thermal bl ock set to 25 °C. Samples were then centrifuged at 15,000rpm at 4 °C f or 20min a nd
were subsequently analyzed by Western Blot of QR2 (1:100, Santa Cruz; sc-271665). The isothermal
concentration response fingerprint (ITDRF) experiments were done using a constant temperature of 73 °C.
Band intensities were normalized to the highest concentration and SOD1 levels (1:200, Santa Cruz; sc -
as §6

THLE-2 cells = test: ATP depletion cell toxicity assay (CellTiter Glo), 72 h; conditions: for cell viability, Cell-Titer-Glo (replicates): THLE2, 72 hour, in % (unit assumed)
Experimental: H2DCFDA ROS assay was carried out according to established protocols, with some adjustment (Supplemental Methods) ([6]). Cell toxicity was measured via ATP depletion (CellTiter Glo, Promega) in THLE-2 cells (ATCC, CRL-2706), following 72 hours of exposure to the test compounds, and cell viability was assessed using XTT assay (Biological Industries) according to manufacturers protocols. CETSA was performed as previously described ([53]) with some modifications, using QR2 (Santa Cruz, sc-271665) and SOD1 (Santa Cruz, sc-17767) antibodies. SDS-PAGE and immunoblot imaging were carried out as previously described ([55]), using Tubulin (Sigma-Aldrich, SAB4500087), QR2 (Santa Cruz, sc-271665), NDUFA9 (AbCam, ab14713) and CD73 (Cell Signaling Technology, D7F9A) antibodies.
with a 100 µM as upper limit, for 72 h. […]
as §5, §6

EC50 (QR2 expressed in HEK293T; n = 3, read-out: EC50, isothermal dose-response of QR2 stabilization): 13 nM
QR2 stabilization signal, ITDRF (replicates) (QR2 expressed in HEK293T; M -5): 11691 and 8388 and 13855
QR2 stabilization signal, ITDRF (replicates) (QR2 expressed in HEK293T; M -5.6): 12608 and 8899 and 18621
QR2 stabilization signal, ITDRF (replicates) (QR2 expressed in HEK293T; M -5.9): 7977 and 16388
QR2 stabilization signal, ITDRF (replicates) (QR2 expressed in HEK293T; M -6.2): 13431 and 8528 and 16152
QR2 stabilization signal, ITDRF (replicates) (QR2 expressed in HEK293T; M -6.5): 13807 and 8233 and 15986
QR2 stabilization signal, ITDRF (replicates) (QR2 expressed in HEK293T; M -6.8): 13304 and 17220
QR2 stabilization signal, ITDRF (replicates) (QR2 expressed in HEK293T; M -7.1): 11995 and 8077 and 17779
QR2 stabilization signal, ITDRF (replicates) (QR2 expressed in HEK293T; M -7.4): 9109 and 4692 and 13840
QR2 stabilization signal, ITDRF (replicates) (QR2 expressed in HEK293T; M -7.7): 6837 and 3416 and 9444
QR2 stabilization signal, ITDRF (replicates) (QR2 expressed in HEK293T; M -8): 2555 and 1788 and 4021
QR2 stabilization signal, ITDRF (replicates) (QR2 expressed in HEK293T; M -9): 121 and 492 and 263
SMILES: Cc1ccc(-c2cn3cccc(C)c3n2)cc1S(=O)(=O)N1CCCC1 [YB-808]
cell viability, XTT (replicates) (HEK293 cells; 3h, inhibitor 2e-8 M): 99.9 and 101.4 and 100.9 and 104.5
cell viability, XTT (replicates) (HEK293 cells; 3h, inhibitor 2e-7 M): 95.8 and 94.0 and 100.4 and 100.6
cell viability, XTT (replicates) (HEK293 cells; 3h, inhibitor 2e-6 M): 96.9 and 89.9 and 98.4 and 94.4
cell viability, XTT (replicates) (HEK293 cells; 3h, inhibitor 2e-5 M): 97.3 and 87.1 and 95.7 and 85.1
cell viability, XTT (replicates) (HEK293 cells; 24h, inhibitor 2e-8 M): 106.1 and 99.4 and 100.6
cell viability, XTT (replicates) (HEK293 cells; 24h, inhibitor 2e-7 M): 106.1 and 98.5 and 96.2
cell viability, XTT (replicates) (HEK293 cells; 24h, inhibitor 2e-6 M): 103.5 and 93.6 and 93.8
cell viability, XTT (replicates) (HEK293 cells; 24h, inhibitor 2e-5 M): 95.3 and 93.6 and 96.9
cell viability, Cell-Titer-Glo (replicates) (THLE-2 cells; inhibitor 3.9e-7 M): 96.4 and 99.1
cell viability, Cell-Titer-Glo (replicates) (THLE-2 cells; inhibitor 7.8e-7 M): 91.2 and 88.9
cell viability, Cell-Titer-Glo (replicates) (THLE-2 cells; inhibitor 1.5625e-6 M): 98.0 and 97.5
cell viability, Cell-Titer-Glo (replicates) (THLE-2 cells; inhibitor 3.125e-6 M): 92.2 and 93.9
cell viability, Cell-Titer-Glo (replicates) (THLE-2 cells; inhibitor 6.25e-6 M): 94.7 and 93.5
cell viability, Cell-Titer-Glo (replicates) (THLE-2 cells; inhibitor 1.25e-5 M): 90.2 and 79.5
cell viability, Cell-Titer-Glo (replicates) (THLE-2 cells; inhibitor 2.5e-5 M): 79.2 and 86.7
cell viability, Cell-Titer-Glo (replicates) (THLE-2 cells; inhibitor 5e-5 M): 66.4 and 67.9
cell viability, Cell-Titer-Glo (replicates) (THLE-2 cells; inhibitor 0.0001 M): 22.2 and 20.2
LD50, cell viability (Cell-Titer-Glo) (THLE-2 cells; THLE2 cells, 72 hour incubation): 59.704 µM
